According to paper PMC3919579, “Timing of GTP binding and hydrolysis by translation termination factor RF3” (Nucleic Acids Research, 2013):

Molecular target: T1, RF3 (Escherichia coli, UniProt P0A7I4)
T1 construct: gene prfC; free RF3, N-terminal His-tag, pET30a, BL21(DE3), Ni-NTA and Resource Q
Test: competition titration against mantGDP, FRET
Format: binding
Conditions: pH 7.5, 37 °C, 7 mM MgCl2; competition with purified RF3-mantGDP

T1 sequence (P0A7I4 2-529): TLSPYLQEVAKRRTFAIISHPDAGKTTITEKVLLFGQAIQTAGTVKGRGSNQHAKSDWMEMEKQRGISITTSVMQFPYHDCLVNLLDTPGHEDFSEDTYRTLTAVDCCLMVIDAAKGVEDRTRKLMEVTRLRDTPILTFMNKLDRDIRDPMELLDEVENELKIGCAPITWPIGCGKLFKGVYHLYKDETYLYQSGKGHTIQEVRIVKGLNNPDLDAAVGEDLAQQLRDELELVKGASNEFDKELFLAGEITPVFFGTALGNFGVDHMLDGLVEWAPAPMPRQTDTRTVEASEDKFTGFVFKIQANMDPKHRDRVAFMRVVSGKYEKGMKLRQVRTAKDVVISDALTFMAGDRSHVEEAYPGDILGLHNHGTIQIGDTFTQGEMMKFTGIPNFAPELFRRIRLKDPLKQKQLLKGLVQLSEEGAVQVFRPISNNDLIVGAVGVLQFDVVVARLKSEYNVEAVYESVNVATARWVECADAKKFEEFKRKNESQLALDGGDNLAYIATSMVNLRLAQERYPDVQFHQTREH

ratio of added nucleotide to mantGDP at half-saturation [fold] | Structure (SMILES)
60 | Nc1nc2c(ncn2[C@@H]2O[C@H](COP(=O)(O)OP(=O)(O)CP(=O)(O)O)[C@@H](O)[C@H]2O)c(=O)[nH]1 [GDPCP]
1 | Nc1nc2c(ncn2[C@@H]2O[C@H](COP(=O)(O)OP(=O)(O)O)[C@@H](O)[C@H]2O)c(=O)[nH]1 [GDP]
3 | Nc1nc2c(ncn2[C@@H]2O[C@H](COP(=O)(O)OP(=O)(O)OP(=O)(O)O)[C@@H](O)[C@H]2O)c(=O)[nH]1 [GTP]
40 | Nc1nc2c(ncn2[C@@H]2O[C@H](COP(=O)(O)OP(=O)(O)NP(=O)(O)O)[C@@H](O)[C@H]2O)c(=O)[nH]1 [GDPNP]
